Measurements taken from US10597388B2, “Pyridazinone herbicides” (FMC CORPORATION, priority 2014, dated 2020).

Tests used:
Assay in all cases: Test D controlled growth environment herbicide test, pre- and postemergence
Type in all cases: in vivo
[1] = tested on: barley, spring (spring barley, Hordeum vulgare)
How it was run: (§1)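 Rating is visual, 0–100 scale (100 = complete control), made against untreated plants 14–21 d after treatment in controlled growth conditions. Postemergence sprays went onto 1- to 4-leaf plants in peat medium; preemergence sprays onto silt loam after sowing; formulation included a surfactant.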

[2] = tested on: lambsquarters (Chenopodium album)
How it was run: as §1

[3] = tested on: field poppy (Papaver rhoeas)
How it was run: as §1

[4] = tested on: field violet (Viola arvensis)
How it was run: as §1

[5] = tested on: pigweed (Amaranthus retroflexus)
How it was run: as §1

[6] = tested on: galium (catchweed bedstraw, Galium aparine)
How it was run: as §1

[7] = tested on: barley, winter (winter barley, Hordeum vulgare)
How it was run: as §1

[8] = tested on: kochia (Kochia scoparia)
How it was run: as §1

[9] = tested on: bluegrass (annual bluegrass, Poa annua)
How it was run: as §1

[10] = tested on: windgrass (Apera spica-venti)
How it was run: as §1

[11] = tested on: chamomile (scentless chamomile, Matricaria inodora)
How it was run: as §1

[12] = tested on: buckwheat, wild (wild buckwheat, Polygonum convolvulus)
How it was run: as §1

[13] = tested on: radish, wild (wild radish, Raphanus raphanistrum)
How it was run: as §1

[14] = tested on: canarygrass (Phalaris minor)
How it was run: as §1

[15] = Postemergence, 31 g ai/ha, scale 0 to 100 (0 no effect, 100 complete control)
[16] = Postemergence, 125 g ai/ha, visual rating on scale 0 (no effect) to 100 (complete control), 14 to 21 d
[17] = Postemergence, 250 g ai/ha, scale 0 to 100 (0 no effect, 100 complete control)
[18] = Preemergence, 62 g ai/ha, scale 0 to 100 (0 no effect, 100 complete control)
[19] = Preemergence, 125 g ai/ha, scale 0 to 100 (0 no effect, 100 complete control)
[20] = Preemergence, 250 g ai/ha, scale 0 to 100, 0 no effect, 100 complete control
[21] = postemergence, 62 g ai/ha, scale 0 to 100, 0 no effect, 100 complete control

CCCC(=O)Oc1c(C)nn(C)c(=O)c1-c1c(C)sc2ccc(C)cc12 [Compound 105]
5: Plant response rating, Barley, Spring [1, 21] | Plant response rating (scale of 0 to 100), Barley, Winter ([7]; Preemergence, 31 g ai/ha) | Plant response rating, Buckwheat, Wild [12, 18] | Plant response rating, Buckwheat, Wild [12, 19] | Radish, Wild plant response rating [13, 15]
55: Plant response rating, Radish, Wild [13, 20]
70: Field Poppy plant response rating [3, 15] | Plant response rating, Windgrass [10, 21] | Plant response rating, Radish, Wild [13, 17]
100: Plant response rating (scale of 0 to 100), Lambsquarters ([2]; Preemergence, 62 g ai/ha) | Plant response rating, Lambsquarters [2, 19] | Plant response rating, Lambsquarters [2, 20] | Plant response rating (scale of 0 to 100), Field Poppy ([3]; Preemergence, 31 g ai/ha) | Plant response rating (scale of 0 to 100), Field Poppy ([3]; Preemergence, 62 g ai/ha) | Plant response rating, Field Poppy [3, 19] | Plant response rating, Field Poppy [3, 20] | Plant response rating, Field Violet [4, 17] | Plant response rating (scale of 0 to 100), Field Violet ([4]; Preemergence, 31 g ai/ha) | Plant response rating (scale of 0 to 100), Field Violet ([4]; Preemergence, 62 g ai/ha) | Plant response rating, Field Violet [4, 19] | Plant response rating, Field Violet [4, 20] | Plant response rating, Pigweed [5, 16] | Plant response rating, Pigweed [5, 17] | Plant response rating (scale of 0 to 100), Pigweed ([5]; Preemergence, 31 g ai/ha) | Plant response rating (scale of 0 to 100), Pigweed ([5]; Preemergence, 62 g ai/ha) | Plant response rating, Pigweed [5, 19] | Plant response rating, Pigweed [5, 20] | Plant response rating, Pigweed [5, 21] | Plant response rating, Galium [6, 17] | Plant response rating, Galium [6, 20] | Plant response rating, Kochia [8, 17] | Plant response rating, Kochia [8, 20] | Plant response rating, Chamomile [11, 16] | Plant response rating, Chamomile [11, 17] | Plant response rating, Buckwheat, Wild [12, 16] | Plant response rating, Buckwheat, Wild [12, 17]
40: Canarygrass plant response rating [14, 15]
35: Plant response rating, Radish, Wild [13, 19]
25: Plant response rating, Barley, Winter [7, 20] | Plant response rating, Bluegrass [9, 17] | Plant response rating (scale of 0 to 100), Bluegrass ([9]; Preemergence, 31 g ai/ha) | Plant response rating, Buckwheat, Wild [12, 20]
30: Plant response rating, Bluegrass [9, 18]
50: Plant response rating (scale of 0 to 100), Kochia ([8]; Preemergence, 62 g ai/ha) | Plant response rating, Canarygrass [14, 21]
98: Plant response rating, Canarygrass [14, 20]
65: Buckwheat, Wild plant response rating [12, 15]
10: Plant response rating, Barley, Spring [1, 16] | Plant response rating, Barley, Winter [7, 16] | Plant response rating, Barley, Winter [7, 18] | Plant response rating, Barley, Winter [7, 19] | Plant response rating, Barley, Winter [7, 21] | Plant response rating (scale of 0 to 100), Kochia ([8]; Preemergence, 31 g ai/ha) | Bluegrass plant response rating [9, 15] | Plant response rating, Bluegrass [9, 21]
80: Plant response rating, Field Poppy [3, 16] | Plant response rating, Field Poppy [3, 17] | Plant response rating (scale of 0 to 100), Galium ([6]; Preemergence, 31 g ai/ha) | Plant response rating, Windgrass [10, 16] | Plant response rating (scale of 0 to 100), Windgrass ([10]; Preemergence, 62 g ai/ha) | Plant response rating, Windgrass [10, 19] | Chamomile plant response rating [11, 15] | Plant response rating, Canarygrass [14, 17]
75: Plant response rating, Field Poppy [3, 21] | Plant response rating, Bluegrass [9, 20] | Plant response rating (scale of 0 to 100), Windgrass ([10]; Preemergence, 31 g ai/ha) | Plant response rating, Canarygrass [14, 16]
20: Plant response rating, Barley, Spring [1, 20] | Plant response rating, Bluegrass [9, 16] | Plant response rating, Radish, Wild [13, 16]
85: Lambsquarters plant response rating [2, 15] | Field Violet plant response rating [4, 15] | Pigweed plant response rating [5, 15] | Galium plant response rating [6, 15] | Plant response rating, Galium [6, 19] | Kochia plant response rating [8, 15] | Plant response rating, Windgrass [10, 17] | Plant response rating, Chamomile [11, 21] | Plant response rating (scale of 0 to 100), Canarygrass ([14]; Preemergence, 31 g ai/ha)
90: Plant response rating, Lambsquarters [2, 16] | Plant response rating, Field Violet [4, 21]
60: Plant response rating, Bluegrass [9, 19] | Windgrass plant response rating [10, 15]
15: Plant response rating, Barley, Spring [1, 17] | Plant response rating, Barley, Winter [7, 17] | Plant response rating (scale of 0 to 100), Buckwheat, Wild ([12]; Preemergence, 31 g ai/ha) | Plant response rating (scale of 0 to 100), Radish, Wild ([13]; Preemergence, 62 g ai/ha) | Plant response rating, Radish, Wild [13, 21]
95: Plant response rating, Lambsquarters [2, 17] | Plant response rating (scale of 0 to 100), Lambsquarters ([2]; Preemergence, 31 g ai/ha) | Plant response rating, Lambsquarters [2, 21] | Plant response rating, Field Violet [4, 16] | Plant response rating, Galium [6, 16] | Plant response rating (scale of 0 to 100), Galium ([6]; Preemergence, 62 g ai/ha) | Plant response rating, Galium [6, 21] | Plant response rating, Kochia [8, 16] | Plant response rating, Kochia [8, 19] | Plant response rating, Kochia [8, 21] | Plant response rating, Windgrass [10, 20] | Plant response rating, Buckwheat, Wild [12, 21] | Plant response rating (scale of 0 to 100), Canarygrass ([14]; Preemergence, 62 g ai/ha) | Plant response rating, Canarygrass [14, 19]
0: Barley, Spring plant response rating [1, 15] | Plant response rating (scale of 0 to 100), Barley, Spring ([1]; Preemergence, 31 g ai/ha) | Plant response rating, Barley, Spring [1, 18] | Plant response rating, Barley, Spring [1, 19] | Barley, Winter plant response rating [7, 15]
